Patent US11306079B2, “3-(5-amino-pyrazin-2-yl)-benzenesulfonamide derivatives and related compounds as PI3K-gamma kinase inhibitors” (Incyte Corporation, priority 2017, dated 2022)
Counter-ions that a name gives are not always drawn.

Tests used:
[1] = target: PI3Kγ (p110γ) Recombinant Human Protein (Homo sapiens (Human), UniProt P48736); assay: PI3K-γ Scintillation Proximity Assay; format: biochemical; details: 20 μM PIP2, 2 μM ATP, 13 nM PI3Kγ, 120 min, room temperature
Description: Example B. PI3K-γ Scintillation Proximity Assay
(§1) [γ-^33P]ATP (10 mCi/mL) and Wheat Germ Agglutinin (WGA) YSi SPA Scintillation Beads was purchased from Perkin-Elmer (Waltham, Mass.). Lipid kinase substrate, D-myo-Phosphatidylinositol 4,5-bisphosphate (PtdIns(4,5)P2)D (+)-sn-1,2-di-O-octanoylglyceryl, 3-O-phospho linked (PIP2), CAS 204858-53-7, was purchased from Echelon Biosciences (Salt Lake City, Utah). PI3Kγ (p110γ) Recombinant Human Protein was purchased from Life technology (Grand island, NY), ATP, MgCl2, DTT, EDTA, MOPS and CHAPS were purchased from Sigma-Aldrich (St. Louis, Mo.).
(§2) The kinase reaction was conducted in polystyrene 384-well Greiner Bio-one white plate from Thermo Fisher Scientific in a final volume of 25 μL. Inhibitors were first diluted serially in DMSO and added to the plate wells before the addition of other reaction components. The final concentration of DMSO in the assay was 2%. The PI3Kγ assay was carried out at room temperature in 20 mM MOPS, pH 6.7, 10 mM MgCl2, 5 mM DTT and CHAPS 0.03%. Reactions were initiated by the addition of ATP, the final reaction mixture consisted of 20 μM PIP2, 2 μM ATP, 0.5 μCi [γ-^33P] ATP, 13 nM PI3Kγ. Reactions were incubated for 120 min and terminated by the addition of 40 μL SPA beads suspended in quench buffer: 163 mM potassium phosphate pH 7.8, 20% glycerol, 25 mM EDTA. The final concentration of SPA beads is 1.0 mg/mL. After the plate sealing, plates were shaken overnight at room temperature and centrifuged at 1500 rpm for 10 min, the radioactivity of the product was determined by scintillation counting on Topcount (Perkin-Elmer). IC50 determination was performed by fitting the curve of percent of the solvent control activity versus the log of the inhibitor concentration using the GraphPad Prism 6.0 software.

[2] = target: PI3Kδ (p110δ/p85α) Recombinant Human Protein (Homo sapiens (Human), UniProt O00329); assay: PI3Kδ Scintillation Proximity Assay; format: biochemical; details: 20 μM PIP2, 2 μM ATP, 3.4 nM PI3Kδ, 120 min, room temperature
Chain of PI3Kδ (p110δ/p85α) Recombinant Human Protein (O00329 whole entry): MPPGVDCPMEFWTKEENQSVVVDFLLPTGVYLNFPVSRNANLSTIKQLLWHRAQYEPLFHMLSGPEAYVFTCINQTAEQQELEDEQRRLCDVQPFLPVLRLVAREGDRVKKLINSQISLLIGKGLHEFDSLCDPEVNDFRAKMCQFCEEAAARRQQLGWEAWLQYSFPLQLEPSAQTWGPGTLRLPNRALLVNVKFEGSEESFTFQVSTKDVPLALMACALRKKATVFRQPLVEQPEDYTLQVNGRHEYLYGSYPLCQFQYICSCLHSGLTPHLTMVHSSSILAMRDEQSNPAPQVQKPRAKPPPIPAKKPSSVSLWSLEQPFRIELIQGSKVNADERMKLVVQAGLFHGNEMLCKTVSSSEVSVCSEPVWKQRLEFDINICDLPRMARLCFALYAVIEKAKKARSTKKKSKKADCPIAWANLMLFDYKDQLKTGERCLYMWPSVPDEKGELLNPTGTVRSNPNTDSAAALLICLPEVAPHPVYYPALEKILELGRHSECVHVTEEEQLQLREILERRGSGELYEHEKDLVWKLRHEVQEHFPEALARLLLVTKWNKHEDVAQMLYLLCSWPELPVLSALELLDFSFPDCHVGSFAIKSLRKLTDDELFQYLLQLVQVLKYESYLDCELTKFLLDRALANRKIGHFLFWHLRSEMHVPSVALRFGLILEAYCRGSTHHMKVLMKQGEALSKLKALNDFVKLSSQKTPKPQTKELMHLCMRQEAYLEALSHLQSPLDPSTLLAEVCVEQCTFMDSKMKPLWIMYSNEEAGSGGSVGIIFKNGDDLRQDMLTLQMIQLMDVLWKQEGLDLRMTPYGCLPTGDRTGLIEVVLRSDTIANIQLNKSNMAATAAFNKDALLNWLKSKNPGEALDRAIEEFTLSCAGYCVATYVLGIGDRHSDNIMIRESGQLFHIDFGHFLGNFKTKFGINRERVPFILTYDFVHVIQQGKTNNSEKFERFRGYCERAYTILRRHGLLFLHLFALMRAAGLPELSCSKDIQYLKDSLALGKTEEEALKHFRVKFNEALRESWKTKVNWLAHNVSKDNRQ
Chain of PI3Kδ (p110δ/p85α) Recombinant Human Protein (P27986 whole entry partner): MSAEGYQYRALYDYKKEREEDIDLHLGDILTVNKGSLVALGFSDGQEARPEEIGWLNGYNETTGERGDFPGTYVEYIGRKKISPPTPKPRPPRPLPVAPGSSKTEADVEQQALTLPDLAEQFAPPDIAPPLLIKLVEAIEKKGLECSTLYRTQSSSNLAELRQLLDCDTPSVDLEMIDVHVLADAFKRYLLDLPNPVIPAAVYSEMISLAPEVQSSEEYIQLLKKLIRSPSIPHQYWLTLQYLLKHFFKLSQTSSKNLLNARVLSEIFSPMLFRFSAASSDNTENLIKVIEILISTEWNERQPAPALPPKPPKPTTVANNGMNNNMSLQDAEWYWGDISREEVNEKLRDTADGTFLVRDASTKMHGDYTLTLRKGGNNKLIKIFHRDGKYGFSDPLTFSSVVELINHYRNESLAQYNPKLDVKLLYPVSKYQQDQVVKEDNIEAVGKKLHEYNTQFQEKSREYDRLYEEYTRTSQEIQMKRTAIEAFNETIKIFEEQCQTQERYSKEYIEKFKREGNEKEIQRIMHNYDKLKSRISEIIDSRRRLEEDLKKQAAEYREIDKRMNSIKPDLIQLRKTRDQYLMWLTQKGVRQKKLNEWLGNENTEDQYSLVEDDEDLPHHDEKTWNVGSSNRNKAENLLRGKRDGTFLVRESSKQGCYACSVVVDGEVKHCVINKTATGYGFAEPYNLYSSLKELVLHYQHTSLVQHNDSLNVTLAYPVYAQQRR
Description: Example C. PI3Kδ Scintillation Proximity Assay
as §1, with “PI3Kδ (p110δ/p85α)” for “PI3Kγ (p110γ)”, “Eurofins (St Charles, Mo.).” for “Life technology (Grand island, NY),”
as §2, with “PI3Kδ” for “PI3Kγ”, “3.4” for “13”, “PI3Kδ.” for “PI3Kγ.”

[3] = test system: Phosphorylated Ribosomal Protein S6 (RPS6) in THP-1 cells; assay: THP-1 RPS6 ELISA Assay; format: cell-based; details: Homo sapiens; serum starved THP-1 cells, 2 hours with compound, 10 nM MCP-1 for 15 minutes, Phospho-RPS6 ELISA; read-out: PI3Kγ_THP1_RPS6_ELISA IC50
Protocol: Example A. THP-1 RPS6 ELISA Assay
To measure the Phosphorylated Ribosomal Protein S6 (RPS6) in cell lysates, THP-1 cells (Human Acute Monocytic Leukemia) are purchased from ATCC (Manassas, Va.) and maintained in RPMI with 10% FBS (Gibco/Life Technologies, Carlsbad, Calif.). For the assay, THP-1 cells are serum starved overnight in RPMI, then plated in RPMI (2×10^5 cells/well in 90 μL) into 96-well flat-bottom tissue culture treated plates (Corning, Corning, N.Y.), in the presence or absence of a concentration range of test compounds. Covered plates are incubated for 2 hours at 37° C., 5% CO2 then treated with or without 10 nM MCP-1 (MYBioSource, San Diego, Calif.) for 15 minutes at 37° C., 5% CO2. Plates are centrifuged at 1600 RPM and supernatants are removed. Cells are lysed in Lysis Buffer (Cell Signaling, Danvers, Mass.) with Protease Inhibitor (Calbiochem/EMD, Germany), PMSF (Sigma, St Louis Mo.), HALTS (Thermo Fisher, Rockford, Ill.) for 30 min on wet ice. Cell lysates are frozen at −80° C. before testing. The lysates are tested in the Human/Mouse/Rat Phospho-RPS6 ELISA (R&D Systems, Inc. Minn, Minn.). The plate is measured using a microplate reader (SpectraMax M5—Molecular Devices, LLC Sunnyvale, Calif.) set to 450 nm with a wavelength correction of 540. IC50 determination is performed by fitting the curve of inhibitor percent inhibition versus the log of the inhibitor concentration using the GraphPad Prism 5.0 software.

Chain of PI3Kγ (p110γ) Recombinant Human Protein (P48736 whole entry): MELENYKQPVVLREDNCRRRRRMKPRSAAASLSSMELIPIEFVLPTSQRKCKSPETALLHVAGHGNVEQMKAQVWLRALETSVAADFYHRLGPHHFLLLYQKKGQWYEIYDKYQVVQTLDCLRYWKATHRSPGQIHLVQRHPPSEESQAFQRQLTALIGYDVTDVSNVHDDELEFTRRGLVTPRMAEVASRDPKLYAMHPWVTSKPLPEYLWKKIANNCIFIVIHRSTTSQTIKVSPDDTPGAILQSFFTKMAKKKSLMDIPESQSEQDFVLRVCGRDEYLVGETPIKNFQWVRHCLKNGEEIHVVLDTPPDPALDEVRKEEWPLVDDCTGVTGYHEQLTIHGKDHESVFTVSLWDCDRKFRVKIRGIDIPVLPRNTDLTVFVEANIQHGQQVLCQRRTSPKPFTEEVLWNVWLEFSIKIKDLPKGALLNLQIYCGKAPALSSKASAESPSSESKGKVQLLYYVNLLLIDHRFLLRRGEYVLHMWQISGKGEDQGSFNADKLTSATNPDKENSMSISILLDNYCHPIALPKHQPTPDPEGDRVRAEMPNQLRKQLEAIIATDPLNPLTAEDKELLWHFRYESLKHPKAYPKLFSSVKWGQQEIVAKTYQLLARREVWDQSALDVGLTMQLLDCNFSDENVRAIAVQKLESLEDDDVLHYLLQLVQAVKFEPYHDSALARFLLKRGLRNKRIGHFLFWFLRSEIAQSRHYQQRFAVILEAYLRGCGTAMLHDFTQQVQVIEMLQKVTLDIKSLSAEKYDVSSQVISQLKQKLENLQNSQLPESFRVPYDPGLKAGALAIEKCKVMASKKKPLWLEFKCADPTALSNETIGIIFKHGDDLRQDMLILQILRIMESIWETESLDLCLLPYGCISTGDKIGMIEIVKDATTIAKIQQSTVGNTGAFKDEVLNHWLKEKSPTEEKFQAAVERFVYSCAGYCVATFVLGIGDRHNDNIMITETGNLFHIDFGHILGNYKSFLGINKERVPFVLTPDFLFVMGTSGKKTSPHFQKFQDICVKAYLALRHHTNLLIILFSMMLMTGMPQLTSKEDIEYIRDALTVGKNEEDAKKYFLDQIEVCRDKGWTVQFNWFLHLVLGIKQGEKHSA

SMILES | IC50 [1] [nM] | IC50 [2] [nM] | IC50 [3] [nM]
Cc1ccc(S(=O)(=O)NC23CCC(C#N)(C2)C3)cc1-c1cnc(N)c(-c2nn[nH]n2)n1 [Example 37, 3-(5-Amino-6-(2H-tetrazol-5-yl)pyrazin-2-yl)-N-(4-cyanobicyclo[2.1.1]hexan-1-yl)-4-methylbenzenesulfonamide Trifluoroacetate Salt] | ≤ 100 | ≥ 2000 | 
Cc1ccc(S(=O)(=O)NC23CCC(CO)(CC2)OC3)cc1-c1cnc(N)c(-c2ccncc2F)n1 [Example 20, 3-(5-Amino-6-(3-fluoropyridin-4-yl)pyrazin-2-yl)-N-(1-(hydroxymethyl)-2-oxabicyclo[2.2.2]octan-4-yl)-4-methylbenzenesulfonamide trifluoroacetate salt] | ≤ 100 | ≤ 500 | ≤ 500
Cc1ccc(S(=O)(=O)NC23COC(CO)(C2)C3)cc1-c1cnc(N)c(-c2cn(C)nc2C)n1 [Example 14, 3-(5-Amino-6-(1,3-dimethyl-1H-pyrazol-4-yl)pyrazin-2-yl)-N-(1-(hydroxymethyl)-2-oxabicyclo[2.1.1]hexan-4-yl)-4-methylbenzenesulfonamide trifluoroacetate salt] | ≤ 100 | ≤ 500 | ≤ 500
Cc1ccc(S(=O)(=O)NC23CC(C(=O)N4CCC4)(C2)C3)cc1-c1cnc(N)c(-n2cncn2)n1 [Example 34, 3-(5-Amino-6-(1H-1,2,4-triazol-1-yl)pyrazin-2-yl)-N-(3-(azetidine-1-carbonyl)bicyclo[1.1.1]pentan-1-yl)-4-methylbenzenesulfonamide trifluoroacetate salt] | ≤ 100 | ≤ 500 | ≥ 1000
Cc1ccc(S(=O)(=O)NC23CCC(CO)(CC2)OC3)cc1-c1cnc(N)c(-c2ccnc(C(F)(F)F)c2)n1 [Example 21, 3-(5-Amino-6-(2-(trifluoromethyl)pyridin-4-yl)pyrazin-2-yl)-N-(1-(hydroxymethyl)-2-oxabicyclo[2.2.2]octan-4-yl)-4-methylbenzenesulfonamide trifluoroacetate salt] | ≤ 100 | ≤ 500 | ≤ 500
Cc1ccc(S(=O)(=O)NC23CC(C#N)(C2)C3)cc1-c1cnc(N)c(-c2nn[nH]n2)n1 [Example 36, 3-(5-Amino-6-(2H-tetrazol-5-yl)pyrazin-2-yl)-N-(3-cyanobicyclo[1.1.1]pentan-1-yl)-4-methylbenzenesulfonamide Trifluoroacetate Salt] | ≤ 100 | ≥ 2000 | 
[2H]C([2H])([2H])c1ccc(S(=O)(=O)NC23CC(CO)(C2)C3)cc1-c1cnc(N)c(-n2nccn2)n1 [Example 51, 3-(5-Amino-6-(2H-1,2,3-triazol-2-yl)pyrazin-2-yl)-N-(3-(hydroxymethyl)bicyclo[1.1.1]pentan-1-yl)-4-(methyl-d3)benzenesulfonamide Trifluoroacetate Salt] | ≤ 100 | < 2000 | 
Cc1ccc(S(=O)(=O)NC23CCC(CO)(CC2)OC3)cc1-c1cnc(N)c(-c2ccncc2C#N)n1 [Example 22, 3-(5-Amino-6-(3-cyanopyridin-4-yl)pyrazin-2-yl)-N-(1-(hydroxymethyl)-2-oxabicyclo[2.2.2]octan-4-yl)-4-methylbenzenesulfonamide trifluoroacetate salt] | < 2000 | ≥ 2000 | 
[2H]C([2H])([2H])c1ccc(S(=O)(=O)NC23CC(C2)N(C(C)C)C3)cc1-c1cnc(N)c(-n2cncn2)n1 [Example 60, 3-(5-Amino-6-(1H-1,2,4-triazol-1-yl)pyrazin-2-yl)-N-(2-isopropyl-2-azabicyclo[2.1.1]hexan-4-yl)-4-(methyl-d3)benzenesulfonamide Trifluoroacetate Salt] | ≤ 100 | ≤ 500 | 
Cc1ccc(S(=O)(=O)NC23CC(C(=O)N(C)C)(C2)C3)cc1-c1cnc(N)c(-n2cncn2)n1 [Example 33, 3-(3-(5-Amino-6-(1H-1,2,4-triazol-1-yl)pyrazin-2-yl)-4-methylphenylsulfonamido)-N,N-dimethylbicyclo[1.1.1]pentane-1-carboxamide trifluoroacetate salt] | ≤ 100 | ≤ 500 | 
[2H]C([2H])([2H])c1ccc(S(=O)(=O)NC23CNC(C2)C3)cc1-c1cnc(N)c(-n2nccn2)n1 [Example 52, 3-(5-Amino-6-(2H-1,2,3-triazol-2-yl)pyrazin-2-yl)-N-(2-azabicyclo[2.1.1]hexan-4-yl)-4-(methyl-d3)benzenesulfonamide Trifluoroacetate Salt] | ≤ 500 | ≤ 500 | 
Cc1ccc(S(=O)(=O)NC23COC(CO)(C2)C3)cc1-c1cnc(N)c(-c2cn(C)nc2C)c1 [Example 84, 3-(6-amino-5-(1,3-dimethyl-1H-pyrazol-4-yl)pyridin-3-yl)-N-(1-(hydroxymethyl)-2-oxabicyclo[2.1.1]hexan-4-yl)-4-methylbenzenesulfonamide] | ≤ 500 | ≤ 500 | 
O=C(O)C(F)(F)F.[2H]C([2H])([2H])c1ccc(S(=O)(=O)NC23CNC(C2)C3)cc1-c1cnc(N)c(-n2cncn2)n1 [Example 53, 3-(5-Amino-6-(1H-1,2,4-triazol-1-yl)pyrazin-2-yl)-N-(2-azabicyclo[2.1.1]hexan-4-yl)-4-(methyl-d3)benzenesulfonamide trifluoroacetate salt] | ≤ 100 | ≤ 500 | 
CNC(=O)C12CC(NS(=O)(=O)c3ccc(C)c(-c4cnc(N)c(-n5cncn5)n4)c3)(C1)C2 [Example 32, 3-(3-(5-Amino-6-(1H-1,2,4-triazol-1-yl)pyrazin-2-yl)-4-methylphenylsulfonamido)-N-methylbicyclo[1.1.1]pentane-1-carboxamide trifluoroacetate Salt] | ≤ 100 | < 2000 | 
[2H]C([2H])([2H])c1ccc(S(=O)(=O)NC23CCC(C#N)(C2)C3)cc1-c1cnc(N)c(-c2cncnc2)n1 [Example 64, 3-(5-Amino-6-(pyrimidin-5-yl)pyrazin-2-yl)-N-(4-cyanobicyclo[2.1.1]hexan-1-yl)-4-(methyl-d3)benzenesulfonamide trifluoroacetate salt] |  |  | ≤ 100
